{"source": "PubChem BioAssay (NCI)", "assay_in_all_cases": "DTP human tumour cell line panel, 48 h", "key": {"[1]": {"tested_on": "786-0 renal"}, "[2]": {"tested_on": "A498 renal"}, "[3]": {"tested_on": "A549 NSCLC"}, "[4]": {"tested_on": "ACHN renal"}, "[5]": {"tested_on": "BT-549 breast"}, "[6]": {"tested_on": "CAKI-1 renal"}, "[7]": {"tested_on": "CCRF-CEM leukemia"}, "[8]": {"tested_on": "COLO 205 colon"}, "[9]": {"tested_on": "DU-145 prostate"}, "[10]": {"tested_on": "EKVX NSCLC"}, "[11]": {"tested_on": "HCC-2998 colon"}, "[12]": {"tested_on": "HCT-116 colon"}, "[13]": {"tested_on": "HCT-15 colon"}, "[14]": {"tested_on": "HL-60(TB) leukemia"}, "[15]": {"tested_on": "HOP-62 NSCLC"}, "[16]": {"tested_on": "HOP-92 NSCLC"}, "[17]": {"tested_on": "HS 578T breast"}, "[18]": {"tested_on": "HT29 colon"}, "[19]": {"tested_on": "IGROV1 ovarian"}, "[20]": {"tested_on": "K-562 leukemia"}, "[21]": {"tested_on": "KM12 colon"}, "[22]": {"tested_on": "LOX IMVI melanoma"}, "[23]": {"tested_on": "M14 melanoma"}, "[24]": {"tested_on": "MALME-3M melanoma"}, "[25]": {"tested_on": "MCF7 breast"}, "[26]": {"tested_on": "MDA-MB-231 breast"}, "[27]": {"tested_on": "MDA-MB-435"}, "[28]": {"tested_on": "MDA-N"}, "[29]": {"tested_on": "MOLT-4 leukemia"}, "[30]": {"tested_on": "NCI-H226 lung"}, "[31]": {"tested_on": "NCI-H23 lung"}, "[32]": {"tested_on": "NCI-H460 lung"}, "[33]": {"tested_on": "NCI-H522 lung"}, "[34]": {"tested_on": "NCI/ADR-RES ovarian"}, "[35]": {"tested_on": "OVCAR-3 ovarian"}, "[36]": {"tested_on": "OVCAR-4 ovarian"}, "[37]": {"tested_on": "OVCAR-5 ovarian"}, "[38]": {"tested_on": "OVCAR-8 ovarian"}, "[39]": {"tested_on": "PC-3 prostate"}, "[40]": {"tested_on": "RPMI-8226 leukemia"}, "[41]": {"tested_on": "RXF 393 renal"}, "[42]": {"tested_on": "SF-268 CNS"}, "[43]": {"tested_on": "SF-295 CNS"}, "[44]": {"tested_on": "SF-539 CNS"}, "[45]": {"tested_on": "SK-MEL-2 melanoma"}, "[46]": {"tested_on": "SK-MEL-28 melanoma"}, "[47]": {"tested_on": "SK-MEL-5 melanoma"}, "[48]": {"tested_on": "SK-OV-3 ovarian"}, "[49]": {"tested_on": "SN12C renal"}, "[50]": {"tested_on": "SNB-19 CNS"}, "[51]": {"tested_on": "SNB-75 CNS"}, "[52]": {"tested_on": "SW-620 colon"}, "[53]": {"tested_on": "T-47D breast"}, "[54]": {"tested_on": "TK-10 renal"}, "[55]": {"tested_on": "U251 CNS"}, "[56]": {"tested_on": "UACC-257 melanoma"}, "[57]": {"tested_on": "UACC-62 melanoma"}, "[58]": {"tested_on": "UO-31 renal"}}, "note": "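Assay format: 96-well plates, 48-hour exposure. TGI: total growth inhibition.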"}
{"smiles": "O=C(c1ccc(Cl)cc1)N1N=C(c2ccc(Cl)cc2)CC1(O)c1cc(F)c(Cl)cc1Cl", "note": "(stereo not drawn)", "values": [{"measurement": "TGI", "setting": "[1]", "result": "> 100", "unit": "µM"}, {"measurement": "TGI", "setting": "[2]", "result": 58.6, "unit": "µM"}, {"measurement": "TGI", "setting": "[3]", "result": "> 100", "unit": "µM"}, {"measurement": "TGI", "setting": "[4]", "result": 62.2, "unit": "µM"}, {"measurement": "TGI", "setting": "[5]", "result": "> 100", "unit": "µM"}, {"measurement": "TGI", "setting": "[6]", "result": 39.6, "unit": "µM"}, {"measurement": "TGI", "setting": "[7]", "result": "> 100", "unit": "µM"}, {"measurement": "TGI", "setting": "[8]", "result": 48.8, "unit": "µM"}, {"measurement": "TGI", "setting": "[9]", "result": "> 100", "unit": "µM"}, {"measurement": "TGI", "setting": "[10]", "result": 59.3, "unit": "µM"}, {"measurement": "TGI", "setting": "[11]", "result": 47.1, "unit": "µM"}, {"measurement": "TGI", "setting": "[12]", "result": 26.4, "unit": "µM"}, {"measurement": "TGI", "setting": "[13]", "result": "> 100", "unit": "µM"}, {"measurement": "TGI", "setting": "[14]", "result": 87, "unit": "µM"}, {"measurement": "TGI", "setting": "[15]", "result": 76.9, "unit": "µM"}, {"measurement": "TGI", "setting": "[16]", "result": 51.3, "unit": "µM"}, {"measurement": "TGI", "setting": "[17]", "result": "> 100", "unit": "µM"}, {"measurement": "TGI", "setting": "[18]", "result": 72.5, "unit": "µM"}, {"measurement": "TGI", "setting": "[19]", "result": "> 100", "unit": "µM"}, {"measurement": "TGI", "setting": "[20]", "result": "> 100", "unit": "µM"}, {"measurement": "TGI", "setting": "[21]", "result": 21.7, "unit": "µM"}, {"measurement": "TGI", "setting": "[22]", "result": 43.3, "unit": "µM"}, {"measurement": "TGI", "setting": "[23]", "result": 78.3, "unit": "µM"}, {"measurement": "TGI", "setting": "[24]", "result": "> 100", "unit": "µM"}, {"measurement": "TGI", "setting": "[25]", "result": "> 100", "unit": "µM"}, {"measurement": "TGI", "setting": "[26]", "result": "> 100", "unit": "µM"}, {"measurement": "TGI", "setting": "[27]", "result": 39.5, "unit": "µM"}, {"measurement": "TGI", "setting": "[28]", "result": 28.5, "unit": "µM"}, {"measurement": "TGI", "setting": "[29]", "result": "> 100", "unit": "µM"}, {"measurement": "TGI", "setting": "[30]", "result": "> 100", "unit": "µM"}, {"measurement": "TGI", "setting": "[31]", "result": 73, "unit": "µM"}, {"measurement": "TGI", "setting": "[32]", "result": "> 100", "unit": "µM"}, {"measurement": "TGI", "setting": "[33]", "result": "> 100", "unit": "µM"}, {"measurement": "TGI", "setting": "[34]", "result": "> 100", "unit": "µM"}, {"measurement": "TGI", "setting": "[35]", "result": 55.6, "unit": "µM"}, {"measurement": "TGI", "setting": "[36]", "result": 51.5, "unit": "µM"}, {"measurement": "TGI", "setting": "[37]", "result": "> 100", "unit": "µM"}, {"measurement": "TGI", "setting": "[38]", "result": "> 100", "unit": "µM"}, {"measurement": "TGI", "setting": "[39]", "result": "> 100", "unit": "µM"}, {"measurement": "TGI", "setting": "[40]", "result": 40.3, "unit": "µM"}, {"measurement": "TGI", "setting": "[41]", "result": "> 100", "unit": "µM"}, {"measurement": "TGI", "setting": "[42]", "result": "> 100", "unit": "µM"}, {"measurement": "TGI", "setting": "[43]", "result": "> 100", "unit": "µM"}, {"measurement": "TGI", "setting": "[44]", "result": "> 100", "unit": "µM"}, {"measurement": "TGI", "setting": "[45]", "result": 39, "unit": "µM"}, {"measurement": "TGI", "setting": "[46]", "result": "> 100", "unit": "µM"}, {"measurement": "TGI", "setting": "[47]", "result": "> 100", "unit": "µM"}, {"measurement": "TGI", "setting": "[48]", "result": "> 100", "unit": "µM"}, {"measurement": "TGI", "setting": "[49]", "result": 73.4, "unit": "µM"}, {"measurement": "TGI", "setting": "[50]", "result": "> 100", "unit": "µM"}, {"measurement": "TGI", "setting": "[51]", "result": 44.5, "unit": "µM"}, {"measurement": "TGI", "setting": "[52]", "result": "> 100", "unit": "µM"}, {"measurement": "TGI", "setting": "[53]", "result": "> 100", "unit": "µM"}, {"measurement": "TGI", "setting": "[54]", "result": "> 100", "unit": "µM"}, {"measurement": "TGI", "setting": "[55]", "result": 37.3, "unit": "µM"}, {"measurement": "TGI", "setting": "[56]", "result": "> 100", "unit": "µM"}, {"measurement": "TGI", "setting": "[57]", "result": 63.3, "unit": "µM"}, {"measurement": "TGI", "setting": "[58]", "result": 22.2, "unit": "µM"}]}
